# From patent publication US20150366932A1, “METHODS FOR PRODUCING DIKETOPIPERAZINES AND COMPOSITIONS CONTAINING DIKETOPIPERAZINES” (AMPIO PHARMACEUTICALS, INC., priority 2013, published 2015)
# Entries after “also recorded” stand apart in the source; their conditions may differ.
# Columns and labels:
# [1] = biological target: T1, dipeptidyl peptidase IV (DPP-IV) (Homo sapiens, UniProt P27487); assay: DPP-IV activity assay with chromogenic substrate Gly-Pro-pNA in HSA solutions; format: biochemical; settings: 1 mM diprotin A pre-incubated 15 minutes at 37° C.; Gly-Pro-pNA 1 mM; 24 hour incubation at 37° C.
# T1 construct: the Cohn manufacturing process which isolates other plasma components such as DPP-IV; tissue CSL Behring LLC; Grifols Biologicals Inc; Octapharma USA Inc. (5% HSA products that contain the enzyme); host or cells: human plasma (Cohn fractionation; commercial 5% HSA solution)
# Procedure: DPP-IV activity was assayed by using a chromogenic substrate, Gly-Pro-pNA, as described in E. Nemoto, S. Sugawara, H. Takada, et al., Increase of CD26/dipeptidyl peptidase IV expression on human gingival fibroblasts upon stimulation with cytokines and bacterial components. […] All reactions were carried out in DPP-IV assay buffer (pH 7.6) consisting of 0.1M HEPES, 0.12M NaCl, 5 mM KCl, 8 mM glucose, and 10 mg/ml bovine serum albumin (BSA). 5% commercial HSA, recombinant HSA, or buffer blank (0.9% NaCl) were combined with 1 mM Gly-Pro-pNA (DPP-IV substrate) in assay buffer or assay buffer only (−CON). Incubations were performed at 37° C. or 60° C. for 2-24 hours. For DPP-IV inhibition studies, 1 mM diprotin A in assay buffer was pre-incubated with the HSA solutions for 15 minutes at 37° C. prior to DPP-IV substrate addition. All incubations were read at 405 nm (SpectraMax M2 spectrophotometer, Molecular Devices LLC, Sunnyvale, Calif., USA). Each reading at 405 nm was corrected by subtracting the A405 for the DPP-IV substrate-containing incubation from the corresponding A405 for the −CON incubation for each HSA solution tested.
# The amount of pNA produced in μM was calculated based on the pNA molar extinction coefficient in HEPES buffer (see R. Lottenberg, C. M. Jackson, Solution composition dependent variation in extinction coefficients for p-nitroaniline. Biochim Biophys Acta 742 (1983) 558-64). […] Groups were compared using a two tailed students' T-test with a significance level at p<0.05. All data is reported as mean±SD.
# Dipeptidyl peptidase IV (DPP-IV) activity was assessed in commercial preparations of human serum albumin (HSA). […] The resulting liberation of a chromogen, pNA, was measured spectrophotometrically at 405 nm.
# DPP-IV = biological target: T2, DPP-IV (Homo sapiens, UniProt P27487); assay: DA-DKP formation in 5% commercial HSA heated at 60° C., <5 kDa fraction by LCMS; format: biochemical
# T2 construct: the Cohn manufacturing process which isolates other plasma components such as DPP-IV; tissue CSL Behring LLC; Grifols Biologicals Inc; Octapharma USA Inc. (5% HSA products that contain the enzyme); host or cells: human plasma (Cohn fractionation; commercial 5% HSA solution)
# Procedure: For the analysis of DA-DKP formation, an aliquot was added to a microcentrifugal filter (Vivaspin 2, MWCO 5,000, Sartorius Stedim Biotech, Goettingen, Germany). Filters were centrifuged at 3,500 rpm for 30 minutes at room temperature. The <5 kDa fraction was collected and transferred to a separate, storage tube for LCMS analysis.
# Each <5 kDa fraction & DA-DKP synthetic standard (20-2000 ng/mL) were spiked with 0.01 mM L-Tryptophan-d5 (indole-d5) which was used as an internal standard. 50 μL was injected into a strong anion exchange column (Spherisorb, S5 SAX 250 mm×4.0 mm, Waters, Milford, Mass., USA) connected to high performance liquid chromatography (HPLC, Waters 2795 Separations Module, Milford, Mass., USA) coupled to a mass spectrometer (LCT-TOF, Micromass, UK). […]
# The output of the HPLC was split 1:20 (v/v) and injected into the mass spectrometer using negative electrospray ionization (−ESI) with a scan range of 80 to 1000 m/z, cone voltage of 30 eV, source temperature of 100° C., and gas temperature of 300° C. DA-DKP was measured by monitoring [M]=185, which corresponds to DA-DKP minus a single proton (—H+). The straight chain of DA-DKP, Asp-Ala, can also be analyzed with this method by monitoring [M]=203.
# The formation of the DKP, DA-DKP, was measured in a commercial HSA solution heated at 60° C. in the presence or absence of a known DPP-IV inhibitor (diprotin A). […]
# [2] = test system: activated PBMC and T-lymphocytes; settings: activated PBMC and T-lymphocytes in vitro; cited from earlier work
# neurokinin-1 receptor = neurokinin-1 receptor (Homo sapiens, UniProt P25103); settings: cited from earlier work
# neurokinin-1 receptor, sequence (P25103 whole entry): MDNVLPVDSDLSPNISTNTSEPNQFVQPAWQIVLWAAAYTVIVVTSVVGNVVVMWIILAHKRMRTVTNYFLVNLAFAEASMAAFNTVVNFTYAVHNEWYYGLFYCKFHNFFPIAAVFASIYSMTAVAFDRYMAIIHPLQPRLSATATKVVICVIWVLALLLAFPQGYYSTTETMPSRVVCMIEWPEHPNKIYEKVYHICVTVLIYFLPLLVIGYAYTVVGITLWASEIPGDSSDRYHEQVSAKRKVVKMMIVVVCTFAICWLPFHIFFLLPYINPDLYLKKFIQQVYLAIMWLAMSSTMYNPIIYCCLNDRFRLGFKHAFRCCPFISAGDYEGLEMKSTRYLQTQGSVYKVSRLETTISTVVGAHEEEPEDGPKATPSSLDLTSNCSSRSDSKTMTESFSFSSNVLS
# T1 sequence (P27487 39-766 limits assumed): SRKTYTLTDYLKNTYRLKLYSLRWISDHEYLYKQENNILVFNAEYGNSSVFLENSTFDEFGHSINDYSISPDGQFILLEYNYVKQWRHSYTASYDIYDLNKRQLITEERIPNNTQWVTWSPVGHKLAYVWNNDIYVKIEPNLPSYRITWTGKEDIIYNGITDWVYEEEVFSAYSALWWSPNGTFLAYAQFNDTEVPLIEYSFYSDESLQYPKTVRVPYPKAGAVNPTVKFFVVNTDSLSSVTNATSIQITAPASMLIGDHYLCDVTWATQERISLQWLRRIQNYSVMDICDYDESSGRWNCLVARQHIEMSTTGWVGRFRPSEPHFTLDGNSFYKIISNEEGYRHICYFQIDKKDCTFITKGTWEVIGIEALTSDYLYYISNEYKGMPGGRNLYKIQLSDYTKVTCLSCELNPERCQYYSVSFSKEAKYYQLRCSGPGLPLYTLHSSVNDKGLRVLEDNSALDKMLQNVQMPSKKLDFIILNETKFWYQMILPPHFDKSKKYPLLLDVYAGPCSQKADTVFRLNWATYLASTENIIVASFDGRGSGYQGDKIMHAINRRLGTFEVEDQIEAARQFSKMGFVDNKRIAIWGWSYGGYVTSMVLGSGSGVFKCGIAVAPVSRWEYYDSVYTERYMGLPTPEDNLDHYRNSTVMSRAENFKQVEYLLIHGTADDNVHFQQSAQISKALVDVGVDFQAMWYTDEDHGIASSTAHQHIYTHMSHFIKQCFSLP
# T2 sequence (P27487 39-766 limits assumed): as above
compound,measurement,setting,value
Ile-Pro-Ile [diprotin A],DPP-IV activity in commercial HSA in the presence of DPP-IV inhibitor,[1],completely suppressed; also recorded: complete suppression of DPP-IV activity; also recorded: abolished
same,Decrease of amount of DA-DKP produced with inhibitor,"DPP-IV; 24 hour period, commercial HSA",~3 fold
same,Increase in DA-DKP production in the presence of the DPP-IV inhibitor,"DPP-IV; 24 hours, 5% commercial HSA plus diprotin A",10%
"CC1NC(=O)C(CC(=O)O)NC1=O (centres unmarked) [DA-DKP, 3-methyl-2,5-diketopiperazine-6-acetic acid]",Immunosuppressive effects,[2],immunosuppressive effects
"CC(=O)N[C@@H](Cc1c[nH]c2ccccc12)C(=O)O [NAT, N-acetyl-tryptophan]",Antagonism of the neurokinin-1 receptor,neurokinin-1 receptor,well-known antagonist
